A short description of the data set: photoluminescence quantum yield (fraction); solvent given as SMILES.

Each structure is given as a SMILES string. Values joined by “and” are separate entries in the source; they are usually repeats but may differ in a detail not shown here. Identical values can stand only once.

On to `COC(=O)c1ccc(C#Cc2ccccc2)cc1`, for which the photoluminescence quantum yield stood at 0.421 (in C1CCCCC1); 0.277 (in CC#N); 0.398 (in CC(C)O); 0.42 (in CCCCCC); 0.429 (in CCCCCCCCCCCCCCCC); 0.441 (in CCCCCCCCCCCCCCCCCl). The photoluminescence quantum yield (in CO) worked out at 0.305.
In the case of `Cc1ccc(C)n1-c1ccc(C#N)cc1`, the photoluminescence quantum yield (in C1CCOC1) turned out to be 0.025; the photoluminescence quantum yield (in CCCCCC) turned out to be 0.026; the photoluminescence quantum yield (in CCCCCl) is 0.035; the photoluminescence quantum yield (in CCOCC) was 0.019; the photoluminescence quantum yield (in ClCCl) came to 0.033.
On to `N#C/C(=C\c1ccc(C#N)cc1)c1nc(-c2ccccc2)cs1`, for which the photoluminescence quantum yield was found to be 0.18 (in CC#N); 0.18 (in CCO); 0.272 (in CN(C)C=O); 0.098 (in Cc1ccccc1); 0.131 (in ClCCl).
Take `CC(C)(C)c1ccc(C2=CC3=C(c4ccccc4)c4cc(-c5ccc(C(C)(C)C)cc5)c(-c5ccc(C(C)(C)C)cc5)n4[B-](F)(F)[N+]3=C2c2ccc(C(C)(C)C)cc2)cc1`: the photoluminescence quantum yield is 0.33 (in C1CCCCC1); 0.28 (in C1CCOC1); 0.29 (in CC#N); 0.43 (in Cc1ccccc1); 0.3 (in ClCCl).
`COC(=O)c1c(NC(C)(C)C)oc(-c2ccccc2)c1C(=O)OC` gave a photoluminescence quantum yield (in CC#N) of 0.1.
Where the note is “in C1CCOC1”, `Cc1cc(C2=C(c3c(C)sc(-c4ccc(-c5nc(-c6ccccc6)c(-c6ccccc6)[nH]5)cc4)c3C)C(F)(F)C(F)(F)C2(F)F)c(C)s1` displayed a photoluminescence quantum yield of 0.077.
Under “in C1CCOC1”, `CC(C)(C)c1ccc(-c2c(-c3ccc4c5ccccc5n(-c5ccccc5)c4c3)c(C#N)c(-c3ccc4c5ccccc5n(-c5ccccc5)c4c3)c(-c3ccc(C(C)(C)C)cc3)c2-c2ccc(C(C)(C)C)cc2)cc1` came in with a photoluminescence quantum yield of 0.457.
As for `CCCCCCCCC1(CCCCCCCC)c2cc(C=O)ccc2-c2ccc(/C=C/c3ccc(N(c4ccccc4)c4ccccc4)cc3)cc21`, the photoluminescence quantum yield (in C1CCOC1) worked out at 0.94; the photoluminescence quantum yield (in C1COCCO1) worked out at 0.67; the photoluminescence quantum yield (in CC#N) amounted to 0.24; the photoluminescence quantum yield (in CC(C)=O) was 0.33; the photoluminescence quantum yield (in CCCCCC) is 0.6; the photoluminescence quantum yield (in CCOC(C)=O) was found to be 0.6. The compound also came in with a photoluminescence quantum yield (in CN(C)C=O) of 0.12; a photoluminescence quantum yield (in CS(C)=O) of 0.2; a photoluminescence quantum yield (in Cc1ccccc1) of 0.58; a photoluminescence quantum yield (in ClC(Cl)Cl) of 0.53; a photoluminescence quantum yield (in ClCCl) of 0.7.
Where the note is “in ClCCl”, `CCCCCCOc1ccc2c(c1)-c1cc3c(cc1[Si]2(C)C)-c1ccccc1[Si]3(C)C` came in with a photoluminescence quantum yield of 0.51.
For `CC(C)[Si](C#Cc1ccc(C#C[Si](C(C)C)(C(C)C)C(C)C)c2nc3c(nc12)C1c2ccccc2C3c2ccccc21)(C(C)C)C(C)C`, the photoluminescence quantum yield (in CCCCCC) turned out to be 0.1.
As to `CCCCCCC(CCCCCC)N1C(=O)c2cccc3c(-c4ccccc4)ccc(c23)C1=O`, the photoluminescence quantum yield came out at 0.076 (in CCCCCC); 0.094 (in CCCCCCCCCCCCCC); 0.76 (in CCCCCCCCCCCO); 0.95 (in CCCCO); 0.74 (in CN(C)C=O); 0.5 (in Cc1ccccc1). For the same compound, the photoluminescence quantum yield (in ClC(Cl)Cl) was 0.78.
As to `c1ccc2c(c1)Cc1ccccc1N2c1c2ccccc2c(N2c3ccccc3Cc3ccccc32)c2ccccc12`, where the note is “in Cc1ccccc1”, the photoluminescence quantum yield is 0.06.
`Clc1ccc(-c2nc(-c3ccccc3)c(N(c3ccccc3)c3ccccc3)s2)cc1`: the photoluminescence quantum yield (in ClC(Cl)Cl) was determined as 0.56.
`CC(C)=CCN1C(=O)c2cccc3c2c(cc2oc(C)nc23)C1=O`: the photoluminescence quantum yield (in CCO) is 0.011.
As to `Nc1ccc2c(c1)C(=O)c1ccc(N)cc1C2=O`, the photoluminescence quantum yield was determined as 0.016 (in CC#N); 0.008 (in CC(C)O); 0.0007 (in CCO); 0.028 (in CCOC(C)=O); 0.0002 (in CO).
`O=C1[C@@H]2[C@H](C(=O)N1c1cccc3cc4ccccc4cc13)[C@H]1C[C@@H]2c2c1c(-c1ccccc1)c1ccccc1c2-c1ccccc1` came in with a photoluminescence quantum yield (in ClC(Cl)Cl) of 0.28.
Compound `CCN1C(=O)C(C2C(=O)c3c4ccccc4cc4cc5ccccc5c2c34)SC1=S` (configuration not stated) came in with a photoluminescence quantum yield (in C1CCOC1) of 0.258; a photoluminescence quantum yield (in CC#N) of 0.135; a photoluminescence quantum yield (in CCCCCC) of 0.33; a photoluminescence quantum yield (in Cc1ccccc1) of 0.339; a photoluminescence quantum yield (in ClCCl) of 0.229.
With `COc1cc(-c2nc3c4cccnc4c4ncccc4c3[nH]2)c(OC)cc1/C=C/c1nc2ccccc2[nH]1`, the photoluminescence quantum yield (in C1CCOC1) amounted to 0.75, the photoluminescence quantum yield (in CC#N) came out at 0.43, the photoluminescence quantum yield (in CO) was 0.21 and the photoluminescence quantum yield (in ClCCl) was 0.62.
Regarding `CC(C)(C)c1ccc(-c2cc(-c3ccc(-c4cc(-c5ccc(C(C)(C)C)cc5)c(C(=O)NCc5ccccc5)s4)s3)sc2C(=O)NCc2ccccc2)cc1`, under “in ClCCl”, the photoluminescence quantum yield is 0.33.
Take `COC(=O)c1ccc(/C=C2\C=C(c3ccc(OC)c(OC)c3)NC2=O)cc1`: the photoluminescence quantum yield (in C1COCCO1) stood at 0.363.
As to `C(#Cc1c(C#Cc2ccccc2)c(C#Cc2ccccc2)c(C#Cc2ccccc2)c(C#Cc2ccccc2)c1C#Cc1ccccc1)c1ccccc1`, the photoluminescence quantum yield (in ClCCl) came out at 0.43.
Compound `F[B-]1(F)OC(/C=C/c2ccccc2)=CC(c2ccccc2)=[O+]1` yielded a photoluminescence quantum yield (in ClCCl) of 0.02.
Compound `N#Cc1c(C#N)c(-n2c3ccccc3c3ccccc32)c(-n2c3ccccc3c3ccccc32)c(-n2c3ccccc3c3ccccc32)c1-n1c2ccccc2c2ccccc21` returned a photoluminescence quantum yield (in Cc1ccccc1) of 0.744.
In turn, `Cc1cn2cc(-c3ccc(-c4ccccc4)cc3)[n-][n+]2c1` returned a photoluminescence quantum yield (in ClCCl) of 0.27.
Take `CC1(C)CC(/N=C/c2ccc3ccc4cccc5ccc2c3c45)CC(C)(C)N1[O]`: the photoluminescence quantum yield by setting is: (in C1CCCCC1) 0.11; (in CC#N) 0.01; (in CO) 0.03; (in ClC(Cl)Cl) 0.02.
Consider `CC(=O)c1c2c(cc3c(N(C)C)cccc13)CCC2`, for which the photoluminescence quantum yield runs as follows: (in C1CCCCC1) 0.28; (in C1CCOC1) 0.39; (in C1COCCO1) 0.44; (in CC#N) 0.23; (in CCO) 0.01; (in CS(C)=O) 0.48. This compound also returned a photoluminescence quantum yield (in Cc1ccccc1) of 0.47, a photoluminescence quantum yield (in ClC(Cl)Cl) of 0.4 and a photoluminescence quantum yield (in ClCCl) of 0.6.
For the compound `c1ccc2c(c1)-c1ccccc1C21c2ccccc2-c2c1c1c3ccccc3ccc1c1ccccc21`, the photoluminescence quantum yield (in Cc1ccccc1) was 0.61.
`C=C[Si](c1c2ccccc2cc2ccccc12)(c1c2ccccc2cc2ccccc12)c1c2ccccc2cc2ccccc12` gave a photoluminescence quantum yield (in ClC(Cl)Cl) of 0.017.
Consider `Brc1cnc(-c2ccncc2)s1`, for which the photoluminescence quantum yield (in CO) stood at 0.02.
`c1ccc(-n2c(-c3cccc4ccccc34)nc3c4ccccc4c4ccccc4c32)cc1` had a photoluminescence quantum yield (in Cc1ccccc1) of 0.79.
Compound `CN(C)c1ccc(C#Cc2ccc3ccc(=O)oc3c2)cc1` gave a photoluminescence quantum yield (in CC#N) of 0.009.
In turn, `CCCCCCCCCCc1cc(-c2cc(CCCCCCCCCC)c(-c3cccs3)s2)sc1-c1cccs1` registered a photoluminescence quantum yield (in CCC(C)C) of 0.16.
In the case of `C(=C\c1nc2ccccc2s1)/c1ccccc1`, the photoluminescence quantum yield by setting is: (in C1CCCCC1) 0.04; (in CO) 0.007.
For the compound `CCN(CC)c1ccc2cc(/C=C(\C#N)c3nc4ccccc4o3)c(=O)oc2c1`, the photoluminescence quantum yield reads like this: (in C1COCCO1) 0.0097; (in CC#N) 0.0071; (in CCO) 0.0158; (in CCOC(C)=O) 0.0068; (in CN(C)C=O) 0.0307; (in CO) 0.0157. Further, the photoluminescence quantum yield reads like this: (in CS(C)=O) 0.0263; (in Cc1ccccc1) 0.0061; (in ClCCl) 0.0066.
Under “in C1CCOC1”, `N#Cc1ccc(C=C(c2ccccc2)c2ccccc2)cc1` returned a photoluminescence quantum yield of 0.046.
On to `O=C(O)C1=C/C(=C/C=[N+]2/c3cc(O)c(C[C@@H]4O[C@H](CO)[C@@H](O)C(O)[C@H]4O)cc3C[C@H]2C(=O)O)C[C@@H](C(=O)O)N1` (some centres not stated), for which the photoluminescence quantum yield by setting is: (in CO) 0.0013; (in O) 0.0007; (in OCCO) 0.0046; (in [2H]O[2H]) 0.0011.
In the case of `CC(C)(C)c1cc(-c2c3cc(c(-c4cc(C(C)(C)C)cc(C(C)(C)C)c4)c4ccc([nH]4)c(-c4ccc(Br)cc4)c4nc(c(-c5ccc(Br)cc5)c5ccc2[nH]5)C=C4)N=C3)cc(C(C)(C)C)c1`, the photoluminescence quantum yield (in ClCCl) is 0.0127.
Regarding `N#Cc1c(-n2c3ccccc3c3ccccc32)c(-n2c3ccccc3c3ccccc32)c(C#N)c(-n2c3ccccc3c3ccccc32)c1-n1c2ccccc2c2ccccc21`, the photoluminescence quantum yield (in Cc1ccccc1) is 0.716 and 0.72.
Turning to `CN1c2ccc(C(=O)c3ccccc3)cc2Sc2cc(C(=O)c3ccccc3)ccc21`, the photoluminescence quantum yield (in C1CCCCC1) is 0.43; the photoluminescence quantum yield (in C1CCOC1) was found to be 0.28; the photoluminescence quantum yield (in CN(C)C=O) came out at 0.18; the photoluminescence quantum yield (in Cc1ccccc1) came out at 0.4; the photoluminescence quantum yield (in ClC(Cl)Cl) stood at 0.21; the photoluminescence quantum yield (in ClCCl) is 0.23.
In turn, `c1ccc(N(c2ccccc2)c2ccc3ccc4c(N(c5ccccc5)c5ccccc5)ccc5ccc2c3c54)cc1` gave a photoluminescence quantum yield (in ClCCl) of 0.78.
Consider `c1ccc2c(-c3cc(-c4nccs4)nc(-c4nccs4)c3)c3ccccc3cc2c1`, for which the photoluminescence quantum yield came out at 0.134 (in CC#N), 0.418 (in CCCCCC), 0.0206 (in CO) and 0.214 (in ClC(Cl)Cl).
